Assay results: patent US9440930B2, “Substituted bicyclic dihydropyrimidinones and their use as inhibitors of neutrophil elastase activity” (Boehringer Ingelheim International GmbH, priority 2014, dated 2016)

These compounds were tested against T1, Human neutrophil elastase (Homo sapiens, UniProt P08246) (assay: Human Neutrophil Elastase Assay). Conditions: substrate MeOSuc-Ala-Ala-Pro-Val-AMC 250 μM, pH 7.5, room temperature.
T1 construct: purchased Calbiochem 324681
T1 sequence (P08246 30-247 limits assumed): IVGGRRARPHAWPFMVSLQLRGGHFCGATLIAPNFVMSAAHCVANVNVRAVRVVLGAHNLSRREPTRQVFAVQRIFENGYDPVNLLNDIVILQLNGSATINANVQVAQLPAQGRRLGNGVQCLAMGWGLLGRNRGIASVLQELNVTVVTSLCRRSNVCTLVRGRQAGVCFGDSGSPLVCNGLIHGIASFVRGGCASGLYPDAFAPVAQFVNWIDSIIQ
Type: biochemical
Text: Human Neutrophil Elastase Assay
For C[S+]([O-])c1cc(C#N)ccc1C1NC(=O)N(c2cccc(C(F)(F)F)c2)C2=C1C(=O)CCC2 (single isomer, unassigned) [Example 1.1, 4-[2,5-Dioxo-1-(3-trifluoromethyl-phenyl)-1,2,3,4,5,6,7,8-octahydro-quinazolin-4-yl]-3-methanesulfinyl-benzonitrile], the IC50 was 2 nM. C[S+]([O-])c1cc(C#N)ccc1C1NC(=O)N(c2cccc(C(F)(F)F)c2)C2=C1C(=O)CCC2 (single isomer, unassigned) [Example 1.1A, 4-[2,5-Dioxo-1-(3-trifluoromethyl-phenyl)-1,2,3,4,5,6,7,8-octahydro-quinazolin-4-yl]-3-methanesulfinyl-benzonitrile] showed an IC50 of under 1 nM. C[S+]([O-])c1cc(C#N)ccc1C1NC(=O)N(c2cccc(C(F)(F)F)c2)C2=C1C(=O)CCC2 (single isomer, unassigned) [Example 1.1B, 4-[2,5-Dioxo-1-(3-trifluoromethyl-phenyl)-1,2,3,4,5,6,7,8-octahydro-quinazolin-4-yl]-3-methanesulfinyl-benzonitrile] showed an IC50 of 7.4 nM. Work on C[S+]([O-])c1cc(C#N)ccc1C1NC(=O)N(c2cccc(C(F)(F)F)c2)C2=C1C(=O)CCC2 (single isomer, unassigned) [Example 1.2, 4-[2,5-Dioxo-1-(3-trifluoromethyl-phenyl)-1,2,3,4,5,6,7,8-octahydro-quinazolin-4-yl]-3-methanesulfinyl-benzonitrile] yielded an IC50 of 4.2 nM. CN1C(=O)N(c2cccc(C(F)(F)F)c2)C2=C(C(=O)CCC2)C1c1ccc(C#N)cc1[S+](C)[O-] (single isomer, unassigned) [Example 2.1, 3-Methanesulfinyl-4-[3-methyl-2,5-dioxo-1-(3-trifluoromethyl-phenyl)-1,2,3,4,5,6,7,8-octahydro-quinazolin-4-yl]-benzonitrile] was tested, and the IC50 was under 1 nM. CN1C(=O)N(c2cccc(C(F)(F)F)c2)C2=C(C(=O)CCC2)C1c1ccc(C#N)cc1[S+](C)[O-] (single isomer, unassigned) [Example 2.1B, 3-Methanesulfinyl-4-[3-methyl-2,5-dioxo-1-(3-trifluoromethyl-phenyl)-1,2,3,4,5,6,7,8-octahydro-quinazolin-4-yl]-benzonitrile] gave an IC50 of 134 nM. Compound CN1C(=O)N(c2cccc(C(F)(F)F)c2)C2=C(C(=O)CCC2)C1c1ccc(C#N)cc1[S+](C)[O-] (single isomer, unassigned) [Example 2.2, 3-Methanesulfinyl-4-[3-methyl-2,5-dioxo-1-(3-trifluoromethyl-phenyl)-1,2,3,4,5,6,7,8-octahydro-quinazolin-4-yl]-benzonitrile] has an IC50 of 1.2 nM. CN1C(=O)N(c2cccc(C(F)(F)F)c2)C2=C(C(=O)CCC2)C1c1ccc(C#N)cc1[S+](C)[O-] (single isomer, unassigned) [Example 2.2B, 3-Methanesulfinyl-4-[3-methyl-2,5-dioxo-1-(3-trifluoromethyl-phenyl)-1,2,3,4,5,6,7,8-octahydro-quinazolin-4-yl]-benzonitrile] was tested, and the IC50 was 100 nM. For CNC(=O)N1C(=O)N(c2cccc(C(F)(F)F)c2)C2=C(C(=O)CCC2)C1c1ccc(C#N)cc1[S+](C)[O-] (single isomer, unassigned) [Example 3.1, 4-(4-Cyano-2-methanesulfinyl-phenyl)-2,5-dioxo-1-(3-trifluoromethyl-phenyl)-1,4,5,6,7,8-hexahydro-2H-quinazoline-3-carboxylic acid methylamide], the IC50 was under 1 nM. CNC(=O)N1C(=O)N(c2cccc(C(F)(F)F)c2)C2=C(C(=O)CCC2)C1c1ccc(C#N)cc1[S+](C)[O-] (single isomer, unassigned) [Example 3.2, 4-(4-Cyano-2-methanesulfinyl-phenyl)-2,5-dioxo-1-(3-trifluoromethyl-phenyl)-1,4,5,6,7,8-hexahydro-2H-quinazoline-3-carboxylic acid methylamide] showed an IC50 of under 1 nM. CS(=O)(=O)c1cc(C#N)ccc1C1C2=C(CCCC2=O)N(c2cccc(C(F)(F)F)c2)C(=O)N1CC1COC1 (single isomer, unassigned) [Example 5B, 3-Methanesulfonyl-4-[3-oxetan-3-ylmethyl-2,5-dioxo-1-(3-trifluoromethyl-phenyl)-1,2,3,4,5,6,7,8-octahydro-quinazolin-4-yl]-benzonitrile] showed an IC50 of 157 nM. With N#Cc1ccc(C2NC(=O)N(c3cccc(C(F)(F)F)c3)C3=C2C(=O)CCC3)c(S(=O)(=O)CCO)c1 (stereo not drawn) [Example 4, 4-[2,5-Dioxo-1-(3-trifluoromethyl-phenyl)-1,2,3,4,5,6,7,8-octahydro-quinazolin-4-yl]-3-(3-hydroxy-ethane-1-sulfonyl)-benzonitrile] the IC50 was 7 nM. Compound N#Cc1ccc(C2NC(=O)N(c3cccc(C(F)(F)F)c3)C3=C2C(=O)CCC3)c(S(=O)(=O)CCCO)c1 (stereo not drawn) [Example 4.1] has an IC50 of 5.6 nM. Compound COCCS(=O)(=O)c1cc(C#N)ccc1C1NC(=O)N(c2cccc(C(F)(F)F)c2)C2=C1C(=O)CCC2 (stereo not drawn) [Example 4.2] has an IC50 of 11 nM. In the case of CN1C(=O)N(c2cccc(C(F)(F)F)c2)C2=C(C(=O)CCC2)C1c1ccc(C#N)cc1CO (stereo not drawn) [Example 7, 3-Hydroxymethyl-4-[3-methyl-2,5-dioxo-1-(3-trifluoromethyl-phenyl)-1,2,3,4,5,6,7,8-octahydro-quinazolin-4-yl]-benzonitrile], the IC50 is reported as 1 nM.
